Data on 19 molecules can be found in patent publication US12161722B2, “Bifunctional heterocyclic compound having BTK degradation function via ubiquitin proteasome pathway, and use thereof” (KOREA RESEARCH INSTITUTE OF CHEMICAL TECHNOLOGY, priority 2021, dated 2024).

SMILES strings stand for the structures.

The target in the assay is T1, WT BTK protein (Homo sapiens, UniProt Q06187).
T1 construct: measured for intracellular BTK protein levels by Western blotting; endogenous in cells; host or cells: TMD-8 or RAMOS cells
T1 sequence (Q06187 whole entry): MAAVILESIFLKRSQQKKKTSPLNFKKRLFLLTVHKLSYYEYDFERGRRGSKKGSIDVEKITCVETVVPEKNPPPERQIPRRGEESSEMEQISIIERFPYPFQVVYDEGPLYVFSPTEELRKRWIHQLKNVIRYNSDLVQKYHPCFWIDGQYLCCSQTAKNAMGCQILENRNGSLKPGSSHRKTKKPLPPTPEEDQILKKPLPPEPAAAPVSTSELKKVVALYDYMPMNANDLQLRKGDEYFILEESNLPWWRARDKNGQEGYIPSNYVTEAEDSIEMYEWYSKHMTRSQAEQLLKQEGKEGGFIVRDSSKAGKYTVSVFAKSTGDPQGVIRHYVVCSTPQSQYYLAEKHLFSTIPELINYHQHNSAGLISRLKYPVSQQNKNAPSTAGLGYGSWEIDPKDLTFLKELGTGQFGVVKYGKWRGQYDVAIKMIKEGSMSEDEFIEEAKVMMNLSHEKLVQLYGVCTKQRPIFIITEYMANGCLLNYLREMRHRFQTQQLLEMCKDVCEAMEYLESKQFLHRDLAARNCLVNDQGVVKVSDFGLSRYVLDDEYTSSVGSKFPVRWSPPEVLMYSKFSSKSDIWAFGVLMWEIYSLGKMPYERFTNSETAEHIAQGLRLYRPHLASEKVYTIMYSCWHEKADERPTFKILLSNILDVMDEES
Nature of the assay: BTK protein degradation assay (Western blotting), WT BTK. It is filed as cell-based. As to conditions: concentration range accounting for 50% degradation of WT BTK protein, TMD-8 or RAMOS cells, 24 hours. The method, boiled down: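 BTK levels were read by Western blotting (GAPDH and β-actin normalisers) in RIPA lysates of TMD-8 cells exposed to compounds for 24 h at 1×10^6 cells/mL. Results scored in ranges of the concentration producing 50% loss of WT BTK.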
For orientation: A western blot detects proteins with antibodies after separation by electrophoresis.
As a reminder, the DC50 is the midpoint of the concentration-degradation curve. For the molecule `Cc1cccc(C)c1Nc1nn(C)c2nc(Nc3ccc4c(c3)CN(C(=O)COc3ccc5c(c3)C(=O)N(C3CCC(=O)NC3=O)C5=O)CC4)ncc12` (stereo not shown) [Compound 194, 5-(2-(7-((3-((2,6-Dimethylphenyl)amino)-1-methyl-1H-pyrazolo[3,4-d]pyrimidin-6-yl)amino)-3,4-dihydroisoquinolin-2 (1H)-yl)-2-oxoethoxy)-2-(2,6-dioxopiperidin-3-yl)isoindoline-1,3-dione], the DC50 is 10 to 1000 nM.

As to `Cc1cccc(Br)c1Nc1nn(C)c2nc(Nc3ccc4c(c3)CN(CC3CCN(c5ccc6c(c5)C(=O)N(C5CCC(=O)NC5=O)C6=O)CC3)CC4)ncc12` (stereo not shown) [Compound 195, 5-(4-((7-((3-((2-Bromo-6-methylphenyl)amino)-1-methyl-1H-pyrazolo[3,4-d]pyrimidin-6-yl)amino)-3,4-dihydroisoquinolin-2 (1H)-yl)methyl)piperidin-1-yl)-2-(2,6-dioxopiperidin-3-yl)isoindoline-1,3-dione], the DC50 was in the range of 0.1 to 10 nM.

Consider `Cc1cccc(C)c1Nc1nn(C)c2nc(Nc3ccc4c(c3)CN(C(=O)C3(NCC5CCN(c6ccc7c(c6)C(=O)N(C6CCC(=O)NC6=O)C7=O)CC5)CC3)CC4)ncc12` (stereo not shown) [Compound 199, 5-(4-(((1-(7-((3-((2,6-Dimethylphenyl)amino)-1-methyl-1H-pyrazolo[3,4-d]pyrimidin-6-yl)amino)-1,2,3,4-tetrahydroisoquinoline-2-carbonyl)cyclopropyl)amino)methyl)piperidin-1-yl)-2-(2,6-dioxopiperidin-3-yl)isoindoline-1,3-dione], for which the DC50 lay in the range of 10 to 1000 nM.

Turning to `Cc1cccc(C)c1Nc1nn(C)c2nc(Nc3ccc4c(c3)CN(CC3CCN(C5=CC(=O)N(C6CCC(=O)NC6=O)C5=O)CC3)CC4)ncc12` (stereo not shown) [Compound 201, 3-(3-(4-((7-((3-((2,6-dimethylphenyl)amino)-1-methyl-1H-pyrazolo[3,4-d]pyrimidin-6-yl)amino)-3,4-dihydroisoquinolin-2 (1H)-yl)methyl)piperidin-1-yl)-2,5-dioxo-2,5-dihydro-1H-pyrrol-1-yl)piperidin-2,6-one], the DC50 lay within 0.1 to 10 nM.

In the case of `Cc1cccc(C)c1Nc1nn(C)c2nc(Nc3ccc4c(c3)CN(CC3(NC(=O)C5CCN(c6ccc7c(c6)C(=O)N(C6CCC(=O)NC6=O)C7=O)CC5)CC3)CC4)ncc12` (stereo not shown) [Compound 204, N-(1-((7-((3-((2,6-dimethylphenyl)amino)-1-methyl-1H-pyrazolo[3,4-d]pyrimidin-6-yl)amino)-3,4-dihydroisoquinolin-2 (1H)-yl)methyl)cyclopropyl)-1-(2-(2,6-dioxopiperidin-3-yl)-1,3-dioxoisoindolin-5-yl)piperidine-4-carboxamide], the DC50 fell in the range of 0.1 to 10 nM.

With `Cc1cccc(C)c1Nc1nn(C)c2nc(Nc3ccc4c(c3)CN(CC3(NC(=O)COc5ccc6c(c5)C(=O)N(C5CCC(=O)NC5=O)C6=O)CC3)CC4)ncc12` (stereo not shown) [Compound 205, N-(1-((7-((3-((2,6-dimethylphenyl)amino)-1-methyl-1H-pyrazolo[3,4-d]pyrimidin-6-yl)amino)-3,4-dihydroisoquinolin-2 (1H)-yl)methyl)cyclopropyl)-2-((2-(2,6-dioxopiperidin-3-yl)-1,3-dioxoisoindolin-5-yl)oxy)acetamide], the DC50 lay in the range of 10 to 1000 nM.

On to `Cc1cccc(C)c1Nc1nn(C)c2nc(Nc3ccc4c(c3)CN(CC3CCN(c5cc6c(cc5F)C(=O)N(C5CCC(=O)NC5=O)C6=O)CC3)CC4)ncc12` (stereo not shown) [Compound 208, 5-(4-((7-((3-((2,6-Dimethylphenyl)amino)-1-methyl-1H-pyrazolo[3,4-d]pyrimidin-6-yl)amino)-3,4-dihydroisoquinolin-2 (1H)-yl)methyl)piperidin-1-yl)-2-(2,6-dioxopiperidin-3-yl)-6-fluoroisoindoline-1,3-dione], for which the DC50 lay within 0.1 to 10 nM.

`Cc1cccc(C)c1Nc1nn(C)c2nc(Nc3ccc4c(c3)CN(CC3CCN(C(=O)C5CCN(c6cc7c(cc6F)C(=O)N(C6CCC(=O)NC6=O)C7=O)CC5)CC3)CC4)ncc12` (stereo not shown) [Compound 210, 5-(4-(4-((7-((3-((2,6-Dimethylphenyl)amino)-1-methyl-1H-pyrazolo[3,4-d]pyrimidin-6-yl)amino)-3,4-dihydroisoquinolin-2 (1H)-yl)methyl)piperidine-1-carbonyl)piperidin-1-yl)-2-(2,6-dioxopiperidin-3-yl)-6-fluoroisoindoline-1,3-dione]: the DC50 was 0.1 to 10 nM.

Regarding `Cc1cccc(C)c1Nc1nn(C)c2nc(Nc3ccc4c(c3)CN(CC3CCN(C(=O)CNc5cc6c(cc5F)C(=O)N(C5CCC(=O)NC5=O)C6=O)CC3)CC4)ncc12` (stereo not shown) [Compound 211, 5-((2-(4-((7-((3-((2,6-Dimethylphenyl)amino)-1-methyl-1H-pyrazolo[3,4-d]pyrimidin-6-yl)amino)-3,4-dihydroisoquinolin-2 (1H)-yl)methyl)piperidin-1-yl)-2-oxoethyl)amino)-2-(2,6-dioxopiperidin-3-yl)-6-fluoroisoindoline-1,3-dione], the DC50 fell in the range of 0.1 to 10 nM.

For the molecule `Cn1nc(Nc2c(Br)cccc2Br)c2cnc(Nc3ccc4c(c3)CN(CC3CCN(c5ccc6c(c5)C(=O)N(C5CCC(=O)NC5=O)C6=O)CC3)CC4)nc21` (stereo not shown) [Compound 217, 5-(4-((7-((3-((2,6-Dibromophenyl)amino)-1-methyl-1H-pyrazolo[3,4-d]pyrimidin-6-yl)amino)-3,4-dihydroisoquinolin-2 (1H)-yl)methyl)piperidin-1-yl)-2-(2,6-dioxopiperidin-3-yl)isoindoline-1,3-dione], the DC50 lay in the range of 0.1 to 10 nM.

For `Cn1nc(Nc2c(Cl)cccc2Br)c2cnc(Nc3ccc4c(c3)CN(CC3CCN(c5ccc6c(c5)C(=O)N(C5CCC(=O)NC5=O)C6=O)CC3)CC4)nc21` (stereo not shown) [Compound 218, 5-(4-((7-((3-((2-Bromo-6-chlorophenyl)amino)-1-methyl-1H-pyrazolo[3,4-d]pyrimidin-6-yl)amino)-3,4-dihydroisoquinolin-2 (1H)-yl)methyl)piperidin-1-yl)-2-(2,6-dioxopiperidin-3-yl)isoindoline-1,3-dione], the DC50 is 0.1 to 10 nM.

For the molecule `Cn1nc(Nc2c(Cl)cccc2I)c2cnc(Nc3ccc4c(c3)CN(CC3CCN(c5ccc6c(c5)C(=O)N(C5CCC(=O)NC5=O)C6=O)CC3)CC4)nc21` (stereo not shown) [Compound 219, 5-(4-((7-((3-((2-chloro-6-iodophenyl)amino)-1-methyl-1H-pyrazolo[3,4-d]pyrimidin-6-yl)amino)-3,4-dihydroisoquinolin-2 (1H)-yl)methyl)piperidin-1-yl)-2-(2,6-dioxopiperidin-3-yl)isoindoline-1,3-dione], the DC50 was 0.1 to 10 nM.

Regarding `Cc1cccc(C)c1Nc1nn(C)c2nc(Nc3ccc4c(c3)CN(CC3CCN(c5cc6c(cc5F)C(=O)N(C5CCC(=O)NC5=O)C6)CC3)CC4)ncc12` (stereo not shown) [Compound 220, 3-(5-(4-((7-((3-((2,6-Dimethylphenyl)amino)-1-methyl-1H-pyrazolo[3,4-d]pyrimidin-6-yl)amino)-3,4-dihydroisoquinolin-2 (1H)-yl)methyl)piperidin-1-yl)-6-fluoro-1-oxoisoindolin-2-yl)piperidin-2,6-one], the DC50 lay within 0.1 to 10 nM.

On to `Cc1cc(F)cc(C)c1Nc1nn(C)c2nc(Nc3ccc4c(c3)CN(CC3CCN(c5ccc6c(c5)C(=O)N(C5CCC(=O)NC5=O)C6=O)CC3)CC4)ncc12` (stereo not shown) [Compound 221, 2-(2,6-dioxopiperidin-3-yl)-5-(4-((7-((3-((4-fluoro-2,6-dimethylphenyl)amino)-1-methyl-1H-pyrazolo[3,4-d]pyrimidin-6-yl)amino)-3,4-dihydroisoquinolin-2 (1H)-yl)methyl)piperidin-1-yl)isoindoline-1,3-dione], for which the DC50 lay in the range of 0.1 to 10 nM.

As for `Cc1cccc(C)c1Nc1nn(C)c2nc(Nc3ccc(C4CCN(C(=O)CC5CCN(c6ccc7c(c6)C(=O)N(C6CCC(=O)NC6=O)C7=O)CC5)CC4)cc3)ncc12` (stereo not shown) [Compound 222, 5-(4-(2-(4-(4-((3-((2,6-Dimethylphenyl)amino)-1-methyl-1H-pyrazolo[3,4-d]pyrimidin-6-yl)amino)phenyl)piperidin-1-yl)-2-oxoethyl)piperidin-1-yl)-2-(2,6-dioxopiperidin-3-yl)isoindoline-1,3-dione], the DC50 was in the range of 0.1 to 10 nM.

For `Cc1cccc(C)c1Nc1nn(C)c2nc(Nc3ccc(C4CCN(C(=O)CN5CCN(c6ccc7c(c6)C(=O)N(C6CCC(=O)NC6=O)C7=O)CC5)CC4)cc3)ncc12` (stereo not shown) [Compound 225, 5-(4-(2-(4-(4-((3-((2,6-dimethylphenyl)amino)-1-methyl-1H-pyrazolo[3,4-d]pyrimidin-6-yl)amino)phenyl)piperidin-1-yl)-2-oxoethyl)piperazin-1-yl)-2-(2,6-dioxopiperidin-3-yl)isoindoline-1,3-dione], the DC50 was in the range of 0.1 to 10 nM.

With `Cc1cccc(C)c1Nc1nn(C)c2nc(Nc3ccc(C4CCN(C(=O)CN5CCN(c6ccc7c(c6)C(=O)N(C6CCC(=O)NC6=O)C7=O)CC5)CC4)c(F)c3)ncc12` (stereo not shown) [Compound 226, 5-(4-(2-(4-(4-((3-((2,6-Dimethylphenyl)amino)-1-methyl-1H-pyrazolo[3,4-d]pyrimidin-6-yl)amino)-2-fluorophenyl)piperidin-1-yl)-2-oxoethyl)piperazin-1-yl)-2-(2,6-dioxopiperidin-3-yl)isoindoline-1,3-dione], the DC50 lay in the range of 0.1 to 10 nM.

Consider `Cc1cccc(C)c1Nc1nn(C)c2nc(Nc3ccc(C4CCN(C(=O)CC5CCN(c6ccc7c(c6)C(=O)N(C6CCC(=O)NC6=O)C7=O)CC5)CC4)c(F)c3)ncc12` (stereo not shown) [Compound 227, 5-(4-(2-(4-(4-((3-((2,6-dimethylphenyl)amino)-1-methyl-1H-pyrazolo[3,4-d]pyrimidin-6-yl)amino)-2-fluorophenyl)piperidin-1-yl)-2-oxoethyl)piperidin-1-yl)-2-(2,6-dioxopiperidin-3-yl)isoindoline-1,3-dione], for which the DC50 was in the range of 0.1 to 10 nM.

Turning to `Cc1cccc(C)c1Nc1nn(C)c2nc(Nc3ccc(C4CCN(C(=O)C5CN(c6ccc7c(c6)C(=O)N(C6CCC(=O)NC6=O)C7=O)C5)CC4)cc3)ncc12` (stereo not shown) [Compound 228, 5-(3-(4-(4-((3-((2,6-dimethylphenyl)amino)-1-methyl-1H-pyrazolo[3,4-d]pyrimidin-6-yl)amino)phenyl)piperidine-1-carbonyl)azetidin-1-yl)-2-(2,6-dioxopiperidin-3-yl)isoindoline-1,3-dione], the 50% degradation concentration (DC50) fell in the range of 0.1 to 10 nM.
